Source: publication PMC12393591, “Targeting Plasminogen Activator Inhibitor-1 with a Novel Small Molecule Inhibitor Attenuates Lung Fibrosis” (Research Square, 2025)
Read-outs that look alike come from different tables or passages of the source.

Tests used:
[1] = test system: lung fibrosis induced by targeted type II alveolar epithelial cell injury; conditions: model of targeted AEC2 injury; previously shown by the authors; cited from earlier work
[2] = test system: TGFβ-expressing adenovirus-induced lung fibrosis; parameters: method as in PMID 21852684; conditions: started 4 days after fibrosis initiation; cited from earlier work
[3] = test system: idiopathic pulmonary fibrosis; parameters: method as in PMID 40387033; conditions: patients with IPF, phase 3 clinical trial; cited from earlier work
[4] = target: recombinant active human PAI-1 (Homo sapiens, UniProt P05121); assay: PAI-1 inhibitory activity against uPA (fluorogenic uPA substrate); assay type: biochemical; conditions: for IC50: read-out: IC50 for inhibiting the activity of PAI-1 against uPA
Sequence of recombinant active human PAI-1 (P05121 24-402): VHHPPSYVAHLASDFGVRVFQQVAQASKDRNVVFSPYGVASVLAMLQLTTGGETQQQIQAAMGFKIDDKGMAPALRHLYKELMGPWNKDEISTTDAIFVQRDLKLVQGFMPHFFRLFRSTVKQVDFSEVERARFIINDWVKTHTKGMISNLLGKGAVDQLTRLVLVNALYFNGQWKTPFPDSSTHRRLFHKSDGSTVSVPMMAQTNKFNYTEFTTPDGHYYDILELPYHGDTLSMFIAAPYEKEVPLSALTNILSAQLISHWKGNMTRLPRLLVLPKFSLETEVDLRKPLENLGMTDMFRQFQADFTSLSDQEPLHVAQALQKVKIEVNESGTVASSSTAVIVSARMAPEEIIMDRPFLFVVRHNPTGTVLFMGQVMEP
Protocol: At each drug concentration, parallel control reactions without PAI-1 were assembled. Residual enzymatic activity was determined by addition of an equal volume of 100 μM Z-Gly-Gly-Arg-AMC (Calbiochem) fluorogenic uPA substrate, and the rate of AMC release monitored at 23°C (excitation 370 nm and emission 440 nm). The percent change in PAI-1 activity was determined according to Eq. 1: [(Ei – Pi) / Ei] / [(E0 - P0) / E0], where Ei is the enzyme activity at drug concentration i; Pi is the enzyme activity in the presence of PAI-1 at drug concentration i; E0 is the enzyme activity in the absence of drug; and P0 is the enzyme activity in the presence of PAI-1 but in the absence of drug. Data were then plotted as the residual PAI-1 activity as a percentage of the control PAI-1 activity vs. compound concentration and from these curves the IC50 of each compound was calculated.

[5] = Non-GLP single dose PK, oral gavage; assay type: in vivo, CD-1 mice; conditions: mouse plasma, single dose 30 mg/kg oral gavage, n=3, mean ± SD
Protocol: A non-GLP comparative, single dose PK analysis of MDI-2268 versus MDI-2517 was performed by the University of Michigan Pharmacokinetics Core in CD-1 mice. Briefly, MDI-2268 or MDI-2517 were suspended in 0.5% methylcellulose in water and given orally by gavage at 30 mg/kg (10mL/kg) to 3 mice each. Blood was collected by using heparinized calibrated pipettes at 0.5h, 2h, 4h, and 7h and centrifuged immediately at 15,000g for 10 min. The plasma was collected, which was frozen at −80°C for later LC-MS analysis.

[6] = test system: bleomycin-induced lung fibrosis; assay: Single-dose bleomycin lung injury model (hydroxyproline, weight, histology); assay type: in vivo, C57BL/6 mice
Protocol: Weight and age matched mice were anesthetized with isoflurane and received an oropharyngeal instillation of bleomycin (2.5 u/kg in 50 μL of sterile PBS) (Sigma Pharmaceuticals). Control mice received 50 μl of PBS alone. Mice were intermittently weighed through day 21. Hydroxyproline content of the lung was measured as previously described. The left lung was inflation-fixed at 25 cm H2O pressure with 10% neutral-buffered formalin, removed en bloc, further fixed in 10% neutral-buffered formalin overnight, and then paraffin embedded. Five-micron sections were stained using hematoxylin and eosin, and picrosirius red methods.

[7] = test system: lung fibrosis induced by targeted type II alveolar epithelial cell injury; assay: Targeted AEC2 injury model (diphtheria toxin in DTR mice; hydroxyproline, weight, histology); assay type: in vivo, DTR-expressing mice (C57BL/6 background); conditions: 60 mg/kg twice daily
[8] = test system: bleomycin-induced lung fibrosis; parameters: method as in PMID 26859294; conditions: mice following bleomycin injury; cited from earlier work

## Cc1ccc(=O)n(-c2ccccc2)c1 [pirfenidone]
[1]
  severity of pulmonary scarring: attenuate the severity of pulmonary scarring

## O=C(COCC(=O)N1CCN(C(c2ccccc2)c2ccccc2)CC1)Nc1ccc(Cl)cc1C(=O)O [TM5275]
[2]
  lung collagen accumulation: significantly decrease lung collagen accumulation

## [O-][S+]1CCc2nc(N3CCC(c4ncc(Cl)cn4)CC3)nc(NC3(CO)CCC3)c21 (stereo not shown) [BI 1015550]
[3]
  rate of lung function decline: reduced the rate of lung function decline

## NNC(=O)C(=O)NCc1cccc(OC(F)(F)F)c1 [MDI-2268]
[4]; buffer containing 10% human PAI-1-depleted plasma
  IC50: 67 µM
[4]; buffer with 50 nM purified human vitronectin
  IC50: 75 µM
[4]; in buffer alone
  IC50: 140 µM
[4]; in the presence of VTN
  fold more effective than Tiplaxtinin at inhibiting PAI-1: greater than 7 fold
[5]
  AUC0-7h obs: 7405 ± 1302 ng·h/mL

## COC(=O)c1ccc2c(c1)NC(=O)/C2=C(\Nc1ccc(N(C)C(=O)CN2CCN(C)CC2)cc1)c1ccccc1 [Nintedanib]
[6]; 60 mg/kg twice daily from day 11
  body weight vs vehicle: recovery of body weight
[6]; 60 mg/kg twice daily, 10 days from day 11
  lung collagen content (hydroxyproline) day 21: statistically significantly attenuated
[6]; 60 mg/kg twice daily, 10 days from day 11, day 21
  areas of lung consolidation, picrosirius red histopathology: significantly attenuated
[7]; 10 days from day 11
  lung hydroxyproline content day 21: statistically significantly reduced
  weight loss vs vehicle-treated injured group: mitigated the severity of the weight loss
[7]; 10 days from day 11, day 21
  histopathologic changes (alveolar wall thickening, picrosirius red staining): significantly attenuated
[1]
  severity of pulmonary scarring: attenuate the severity of pulmonary scarring

## CC(C)(C)c1ccc2oc(-c3ccc4cc(OCCCCCC(C(=O)[O-])C(=O)[O-])ccc4c3)nc2c1.[Na+].[Na+] [SK-216]
[8]
  lung fibrosis: modestly attenuate lung fibrosis
